Test results taken from patent publication US20190350918A1, “PPARy AGONIST FOR TREATMENT OF HUNTINGTON'S DISEASE” (Coherus Biosciences, Inc., priority 2017, published 2019).

Columns and labels:
[1] = subjects taking INT131 versus pioglitazone; DePaoli, et al. Diabetes Care 2014; cited from earlier work
adiponectin [2] = assay: 24-week randomized, double-blind, placebo-controlled study in type 2 diabetes subjects: serum adiponectin levels; format: in vivo, human
Method: A randomized, double-blind, placebo-controlled, 24-week study was conducted in which adiponectin levels were measured. […] 367 subjects with type 2 diabetes (TD2)—a disease in which patient adiponectin levels are reduced—were randomly assigned to receive either 0.5, 1, 2 or 3 milligrams (“mg”) of INT131 besylate, 45 mg of pioglitazone or placebo daily for 24 weeks. To measure adiponectin levels blood was drawn at Weeks 0, 2, 6, 12 and 24. At baseline (Week 0) mean adiponectin levels were 1.94 micrograms per milliliter (“μg/mL”). The mean adiponectin levels at baseline and Week 24, and the mean change in adiponectin levels from baseline (Week 0) to Week 24 are disclosed in Table 1, below. The standard deviation for samples tested in each group is listed in (parenthesis). Mean baseline adiponectin values were similar for the treatment groups.

R6/2 Huntington's mice = assay: R6/2 Huntington's mice: Huntington disease signs and symptoms; format: in vivo, mouse; conditions: R6/2 mice; 1 mg/kg, 3 mg/kg, and 6 mg/kg
Method: INT-131 is evaluated in R6/2 Huntington's mice. R6/2 mice express mutant human exon 1 of the HTT gene. R6/2 mice develop Huntington phenotypes, which progress over time. These mice display motor and cognitive deficits, cortical cellular degeneration and striatal cellular morphological changes, as well as alterations in cortical and striatal synaptic transmission. In particular, R6/2 mice develop a loss of coordination, tremors, hypokinesis, abnormal gait, neuropathy, and premature death. After mice develop Huntington symptoms, the mice are administered INT-131 or a placebo at a regular dosing interval over a period of time. INT-131 doses include 1 mg/kg, 3 mg/kg, and 6 mg/kg. Huntington disease signs and symptoms are evaluated in each group over the period of time. After mice develop Huntington symptoms, the mice are administered INT-131 or another therapy for treating Huntington's disease at a regular dosing interval over a period of time. INT-131 doses include 1 mg/kg, 3 mg/kg, and 6 mg/kg. Other therapies include those approved for treatment and those in development for treating Huntington's disease.

HbA1c [3] = assay: 24-week study in type 2 diabetes subjects: HbA1c levels; format: in vivo, human
adiponectin [4] = assay: 14-day study in healthy subjects: serum adiponectin levels; format: in vivo, human
Method: A study was conducted to determine the effect of INT131 on serum adiponectin levels. Thirty healthy subjects were randomly selected to receive either placebo, 0.1 mg INT131, 1 mg INT131 or 4 mg INT131 daily for 14 days. To measure adiponectin levels blood was drawn at Days 1, 4, 8 and 14.

HbA1c [5] = conditions: DePaoli, et al. Diabetes Care 2014; cited from earlier work

| Structure (SMILES) | side effects compared with pioglitazone [1] | adiponectin levels, treatment comparison with pioglitazone 45 mg (adiponectin [2]; 0.5 mg, 1 mg, and 3 mg doses of INT131, p≤0.0408) | adiponectin levels, treatment comparison with placebo (adiponectin [2]; 1 mg, 2 mg, and 3 mg doses of INT131, p≤0.0109) | mean change in adiponectin from baseline to Week 24 with LOCF (adiponectin [2]; 2 mg group) [µg/mL] | mean change in adiponectin from baseline to Week 24 with LOCF (adiponectin [2]; INT131 0.5 mg group) [µg/mL] | mean change in adiponectin from baseline to Week 24 with LOCF (adiponectin [2]; INT131 1 mg group) [µg/mL] | mean change in adiponectin from baseline to Week 24 with LOCF (adiponectin [2]; INT131 3 mg group) [µg/mL] | upregulation of serum adiponectin levels compared with pioglitazone (adiponectin [2]; INT131 at either 2 or 3 mg versus 45 mg pioglitazone) | Huntington's disease symptoms versus placebo (R6/2 Huntington's mice) | progression and development of Huntington's disease versus placebo (R6/2 Huntington's mice) | slowing progression or development and treating signs and symptoms of Huntington's disease versus another therapy (R6/2 Huntington's mice) | HbA1c levels as compared to placebo (HbA1c [3]; 1, 2, and 3 mg doses of INT131, 24 weeks) | reduction of HbA1c levels compared with 45 mg of pioglitazone (HbA1c [3]; 2 and 3 mg doses of INT131, 24 weeks) | change in serum adiponectin levels Day 1 to Day 14 and over placebo (adiponectin [4]; 0.1 mg INT131 daily for 14 days) | change in serum adiponectin levels over placebo and from Day 1 to Day 14 (adiponectin [4]; 1 mg or 4 mg INT131 daily for 14 days) | reducing HbA1c levels compared with 45 mg of pioglitazone (HbA1c [5]) | mean change in adiponectin from baseline to Week 24 with LOCF (adiponectin [2]; pioglitazone 45 mg group) [µg/mL] |
| --- | --- | --- | --- | --- | --- | --- | --- | --- | --- | --- | --- | --- | --- | --- | --- | --- | --- |
| O=S(=O)(Nc1cc(Cl)c(Oc2cnc3ccccc3c2)c(Cl)c1)c1ccc(Cl)cc1Cl [INT131] | less edema, weight gain, and hemodilution | statistically significant | statistically significant | 3.27 | 0.56 | 1.28 | 3.83 | greater upregulation | reduced Huntington's disease symptoms | slows progression and development | as effective, or more effective | statistically significant reduction | at least as well as 45 mg of pioglitazone | no significant change | significant change | equally efficacious |  |
| CCc1ccc(CCOc2ccc(CC3SC(=O)NC3=O)cc2)nc1 (centres unmarked) [Pioglitazone, pioglitazone, reference compound] |  |  |  |  |  |  |  |  |  |  |  |  |  |  |  |  | 2.96 |
